Source: publication PMC10818523, “Novel Flurbiprofen Derivatives as Antioxidant and Anti-Inflammatory Agents: Synthesis, In Silico, and In Vitro Biological Evaluation” (Molecules, 2024)
Read-outs that look alike come from different tables or passages of the source.

Assays:
human albumin = human albumin (Homo sapiens, UniProt P02768); assay: Inhibition of albumin denaturation (IAD); type: biochemical; conditions: heated at 70 °C for 15 min, mean ± SD of triplicates
Description: In vitro analysis of anti-inflammatory activity was assessed as inhibition of albumin denaturation (IAD). The analysis was performed according Manolov et al. method. The experiment was performed with human albumin. The solution of albumin (1%) was prepared in distilled water (pH 7.4). The tested and the reference compounds were dissolved firstly in PBS resulting in 1000 μg/mL stock solutions. Then a series of working solutions with different concentrations (20–500 μg/mL) in PBS were prepared. The reaction mixture was containing 2 mL test sample/reference of different concentrations and 1 mL albumin (1%). The mixture was incubated at 37 °C for 15 min and then heated at 70 °C for 15 min in water bath. After cooling, the turbidity was measured at 660 nm with a spectrophotometer (Camspec M508, Leeds, UK). Ibuprofen and flurbiprofen were used as reference compounds. The experiment was performed three times. Percentage inhibition of albumin denaturation (IAD) was calculated against the control. The control sample is albumin with the same concentration dissolved in distilled water. %IAD=Ablank−Asample/Ablank×100
(§1) All of the analyses were made in triplicates. Data were expressed as mean ± SD. The level of significance was set at p < 0.05. The mean IC50 value was estimated based on three replicates by interpolating the graphical dependence of activity on concentration. Statistical program SPSS 19.0 software was used for data analysis by one-way ANOVA followed by Duncan’s post hoc test to evaluate differences between mean values of activities (SPSS Inc., Chicago, IL, USA).

[1] = Hydrogen peroxide scavenging activity (HPSA); type: biochemical; conditions: antioxidant activity, H2O2 scavenging, 10 min at 37 °C, mean ± SD of triplicates
Description: The Manolov et al. method was used to assess the hydrogen peroxide scavenging capability. A 43 mM solution of H2O2 was prepared in potassium phosphate buffer solution (0.2 M, pH 7.4). The analysis of the samples was carried out as follows: in test tubes, 0.6 mL H2O2 (43 mM), 1 mL sample or reference compounds with different concentrations (20–1000 µg/mL), and 2.4 mL potassium phosphate buffer solution were mixed. The mixture was stirred and incubated in the dark for 10 min at 37 °C. Absorbance was measured at 230 nm with a spectrophotometer (Camspec M508, Leeds, UK) against a blank solution containing phosphate buffer and H2O2 without the sample. Ascorbic acid and quercetin were used as reference compounds. The percentage HPSA of the samples was evaluated by comparing with a blank sample and calculated using the following formula: I,%(HPSA)=Ablank−(ATS−ACS)/Ablank×100 where Ablank is the absorbance of the blank sample, ACS is the absorbance of the control sample, and ATS is the absorbance of the test sample.
as §1

bovine trypsin = molecular target: T1, bovine trypsin (Bos taurus, UniProt P00760); assay: Antitryptic activity (ATA); type: biochemical; conditions: human albumin as substrate, mean ± SD of triplicates
T1 sequence (P00760 24-246): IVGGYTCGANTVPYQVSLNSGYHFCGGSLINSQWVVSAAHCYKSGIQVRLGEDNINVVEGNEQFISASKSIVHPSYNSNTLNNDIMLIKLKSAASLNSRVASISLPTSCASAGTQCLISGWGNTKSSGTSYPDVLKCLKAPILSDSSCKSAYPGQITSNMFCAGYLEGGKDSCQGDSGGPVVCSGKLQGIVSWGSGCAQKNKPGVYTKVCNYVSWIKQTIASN
Description: This method is known also as an in vitro anti-arthritic activity. The analysis was performed according to the method of Oyedapo and Femurewa with minor modification as described by Manolov et al.. The reaction mixture was containing 2 mL 0.06 mg/mL bovine trypsin, 1 mL Tris-HCl buffer (20 mM, pH 7.4) and 1 mL test sample or reference (in methanol) of different concentrations (20-1000 μg/mL). The mixture was incubated at 37 °C for 5 min. Then 1 mL of human albumin (4% v/v) was added. The mixture was incubated for an additional 20 min. To the mixture 2 mL of 70% perchloric acid was added for termination of the reaction. The cloudy suspension was cooled and centrifuged at 5000 rpm for 20 min. The absorbance of the supernatant was measured at 280 nm with a spectrophotometer ([…], UK) against control solution. The control solution was sample or reference in methanol with different concentrations. Ibuprofen and flurbiprofen were used as reference compounds. The analysis was performed three times. The percentage of antitryptic activity (ATA) of the samples was evaluated by comparing with a blank sample. The blank sample is prepared as the test sample but with a small exception-perchloric acid is added before albumin. %ATA=Ablank-ATS-ACS/Ablank×100 where Ablank is the absorbance of the blank sample, ACS is the absorbance of the control solution (test sample in different concentrations) and ATS is the absorbance of the test samples. All of the analyses were made in triplicates. Data were expressed as mean ± SD. The level of significance was set at p < 0.05. The mean IC50 value was estimated based on three replicates by interpolating the graphical dependence of activity on concentration. Statistical program SPSS 19.0 software was used for data analysis by one-way ANOVA followed by Duncan's post hoc test to evaluate differences between mean values of activities (SPSS Inc., Chicago, IL, USA).

[2] = Experimental determination of lipophilicity (RM), reversed-phase thin-layer chromatography; type: physicochemical; conditions: dimensionless, from thin-layer chromatography Rf
From the text: Lipophilicity can be assessed through either calculation or experimental methods. In our study, we determined the lipophilicity of the resulting flurbiprofen derivatives using a practical approach, employing reversed-phase thin-layer chromatography, a technique previously reported by Hadjipavlou-Litina.
The method employed for assessing the lipophilicity of flurbiprofen derivatives followed the procedure outlined by Hadjipavlou-Litina.

rats = assay: Prediction of acute rat toxicity by GUSAR software; conditions: from predicted rat LD50, IV

Sequence of human albumin (P02768 25-609): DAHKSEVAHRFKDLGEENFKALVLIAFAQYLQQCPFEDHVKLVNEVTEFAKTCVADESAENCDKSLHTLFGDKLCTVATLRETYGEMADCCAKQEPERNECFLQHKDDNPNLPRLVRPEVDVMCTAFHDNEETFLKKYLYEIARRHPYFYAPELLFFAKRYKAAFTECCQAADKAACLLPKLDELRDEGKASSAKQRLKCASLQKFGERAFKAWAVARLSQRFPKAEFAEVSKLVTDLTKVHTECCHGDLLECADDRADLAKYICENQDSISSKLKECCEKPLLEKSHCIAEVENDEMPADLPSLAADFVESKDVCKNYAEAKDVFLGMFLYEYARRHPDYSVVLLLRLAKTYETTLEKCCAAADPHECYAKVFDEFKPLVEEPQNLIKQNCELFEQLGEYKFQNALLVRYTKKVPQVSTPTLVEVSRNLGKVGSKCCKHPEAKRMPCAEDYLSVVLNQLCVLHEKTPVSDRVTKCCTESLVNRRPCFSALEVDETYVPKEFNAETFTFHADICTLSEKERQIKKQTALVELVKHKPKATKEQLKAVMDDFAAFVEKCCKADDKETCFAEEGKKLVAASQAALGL

Row | SMILES | IC50 (human albumin; read-out: IAD IC50 ± SD) [µM] | IC50 [1] [µM] | IC50 (bovine trypsin) [µM] | RM ± SD [2] | IC50 ([1]; listed as quercetin) [µM] | IC50 ([1]; listed as ascorbic acid) [µM] | toxicity relative to flurbiprofen, intravenous (rats) | IC50 (human albumin; IAD IC50 ± SD) [µM]
1 | CC(C(=O)NCCc1ccccc1)c1ccc(-c2ccccc2)c(F)c1 (centres unmarked) [Compound 4a, 2-(2-fluoro-[1,1′-biphenyl]-4-yl)-N-phenethylpropanamide] | 198 ± 2.3 | 223 ± 6 | 2260 ± 73 | 1.24 ± 0.02 | – | – | – | –
2 | CC(C)Cc1ccc(C(C)C(=O)O)cc1 (centres unmarked) [Ibu, ibuprofen, reference compound] | – | 618 ± 25 | 1260 ± 44 | 1.11 ± 0.01 | – | – | – | –
3 | COc1ccc(CCNC(=O)C(C)c2ccc(-c3ccccc3)c(F)c2)cc1OC (centres unmarked) [Compound 4d, N-(3,4-dimethoxyphenethyl)-2-(2-fluoro-[1,1′-biphenyl]-4-yl)propanamide] | 173.74 ± 0.13 | 199.5 ± 1.3 | 215 ± 5 | 1.33 ± 0.02 | – | – | – | –
4 | COc1ccc(CCNC(=O)C(C)c2ccc(-c3ccccc3)c(F)c2)cc1 (centres unmarked) [Compound 4c, 2-(2-fluoro-[1,1′-biphenyl]-4-yl)-N-(4-methoxyphenethyl)propanamide] | 196.9 ± 0.5 | 144 ± 10 | 203 ± 14 | 1.21 ± 0.02 | – | – | – | –
5 | O=c1c(O)c(-c2ccc(O)c(O)c2)oc2cc(O)cc(O)c12 [Qrc, quercetin] | – | 229 ± 6 | – | – | 229 | – | – | –
6 | O=C1O[C@H]([C@@H](O)CO)C(O)=C1O [AA, ascorbic acid] | – | 141 ± 2 | – | – | – | 141 | – | –
7 | CC(C(=O)NCCc1cccc(Cl)c1)c1ccc(-c2ccccc2)c(F)c1 (centres unmarked) [Compound 4e, N-(3-chlorophenethyl)-2-(2-fluoro-[1,1′-biphenyl]-4-yl)propanamide] | 193 ± 2.2 | 199 ± 9 | 198 ± 14 | 1.41 ± 0.03 | – | – | four times greater toxicity than flurbiprofen | –
8 | COc1cccc(CCNC(=O)C(C)c2ccc(-c3ccccc3)c(F)c2)c1 (centres unmarked) [Compound 4b, 2-(2-fluoro-[1,1′-biphenyl]-4-yl)-N-(3-methoxyphenethyl)propanamide] | 188 ± 3 | 201 ± 3.3 | 208 ± 15 | 1.13 ± 0.02 | – | – | – | –
9 | CC(C(=O)O)c1ccc(-c2ccccc2)c(F)c1 (centres unmarked) [Flu, flurbiprofen] | – | 1160 ± 64 | 441 ± 36 | 1.37 ± 0.02 | – | – | – | 339
